Measured values as given in ChEMBL document CHEMBL5226286, “The application of isatin-based multicomponent-reactions in the quest for new bioactive and druglike molecules” (Eur J Med Chem, 2021).
Converted amounts (≈) assume the structure as drawn. The source made the active and inactive calls. The calls are words filed in the database; no cut-off is given here.

How the values were obtained:
MCF7 [1] = assay: Antiproliferative activity against human MCF7 cells by MTT reduction assay; assay type: functional, cell-based
K562 = assay: Antiproliferative activity against human K562 cells by MTT reduction assay; assay type: functional, cell-based
NIH3T3 = assay: Anticancer activity against mouse 3T3 cells measured after 48 hrs by MTT assay; assay type: functional, cell-based; conditions: NIH3T3, 48 h
HeLa [2] = assay: Anticancer activity against human HeLa cells measured after 48 hrs by MTT assay; assay type: functional, cell-based
Leishmania major = assay: Antileishmanial activity against Leishmania major promastigotes incubated for 72 hrs by micrscopic analysis; assay type: functional
SMMC-7721 = assay: Antiproliferative activity against human SMMC-7721 cells; assay type: functional, cell-based
MGC-803 = assay: Antiproliferative activity against human MGC-803 cells; assay type: functional, cell-based
ECa-109 cell line = assay: Antiproliferative activity against human EC109 cells; assay type: functional, cell-based
Ehrlich = assay: Cytotoxicity against mouse EAC cells assessed as reduction in cell viability incubated for 2 hrs by trypan blue staining based microscopic analysis; assay type: functional
Pseudomonas aeruginosa [3] = assay: Antibacterial activity against Pseudomonas aeruginosa ATCC 27853; assay type: functional
Pseudomonas aeruginosa [4] = assay: Antibacterial activity against Pseudomonas aeruginosa No.010; assay type: functional
Pseudomonas aeruginosa [5] = assay: Antibacterial activity against multidrug resistant Pseudomonas aeruginosa 034; assay type: functional
Pseudomonas aeruginosa [6] = assay: Antibacterial activity against multidrug resistant Pseudomonas aeruginosa 025; assay type: functional
Escherichia coli [7] = assay: Antibacterial activity against Escherichia coli incubated for 24 to 48 hrs by agar diffusion well method; assay type: functional; conditions: time 24-48 hrs
Streptococcus pneumoniae [8] = assay: Antibacterial activity against Streptococcus pneumoniae RCMB 010010 incubated for 24 hrs by agar well diffusion method; assay type: functional
Bacillus subtilis [9] = assay: Antibacterial activity against Bacillus subtilis; assay type: functional
Pseudomonas aeruginosa [10] = assay: Antibacterial activity against Pseudomonas aeruginosa incubated for 24 to 48 hrs by agar diffusion well method; assay type: functional; conditions: time 24-48 hrs
Bacillus subtilis [11] = assay: Antibacterial activity against Bacillus subtilis incubated for 24 to 48 hrs by agar diffusion well method; assay type: functional; conditions: time 24-48 hrs
Pseudomonas aeruginosa [12] = assay: Antibacterial activity against Pseudomonas aeruginosa ATCC 85327; assay type: functional
Escherichia coli [13] = assay: Antimicrobial activity against Escherichia coli ATCC 25922; assay type: functional
Streptococcus pneumoniae [14] = assay: Antibacterial activity against Streptococcus pneumoniae incubated for 24 to 48 hrs by agar diffusion well method; assay type: functional; conditions: time 24-48 hrs
Bacillus subtilis [15] = assay: Antibacterial activity against Bacillus subtilis RCMB 010067 incubated for 24 hrs by agar well diffusion method; assay type: functional
HeLa [16] = assay: Anticancer activity against human HeLa cells by MTT assay; assay type: functional, cell-based
Escherichia coli [17] = assay: Antibacterial activity against Escherichia coli assessed as zone of inhibition; assay type: functional
Staphylococcus aureus [18] = assay: Antibacterial activity against Staphylococcus aureus NCIM 2010 measured after 12 hrs; assay type: functional
Pseudomonas aeruginosa [19] = assay: Antibacterial activity against Pseudomonas aeruginosa NCIM […] measured after 8 hrs; assay type: functional
Staphylococcus aureus [20] = assay: Antibacterial activity against Staphylococcus aureus by disc diffusion method; assay type: functional
Escherichia coli [21] = assay: Antibacterial activity against Escherichia coli NCIM 2688 measured after 8 hrs; assay type: functional
Bacillus subtilis [22] = assay: Antibacterial activity against Bacillus subtilis NCIM 2079 measured after 12 hrs; assay type: functional
Pseudomonas aeruginosa [23] = assay: Antibacterial activity against Pseudomonas aeruginosa by disc diffusion method; assay type: functional
Escherichia coli [24] = assay: Antibacterial activity against Escherichia coli by disc diffusion method; assay type: functional
Bacillus subtilis [25] = assay: Antibacterial activity against Bacillus subtilis by disc diffusion method; assay type: functional
Escherichia coli [26] = assay: Antibacterial activity against Escherichia coli RCMB 01100052 incubated for 24 hrs by agar well diffusion method; assay type: functional
Pseudomonas aeruginosa [27] = assay: Antibacterial activity against Pseudomonas aeruginosa RCMB 010043 incubated for 24 hrs by agar well diffusion method; assay type: functional
Staphylococcus aureus [28] = assay: Antibacterial activity against Staphylococcus aureus assessed as zone of inhibition; assay type: functional
HepG2 [29] = assay: Growth inhibition of human HepG2 cells at 20 micromol relative to control; assay type: functional; conditions: dose 20 µmol
DU-145 = assay: Cytotoxicity against human DU-145 cells incubated for 48 hrs by MTT assay; assay type: functional, cell-based; conditions: DU-145, 48 h
SK-N-SH = assay: Antiproliferative activity against human SK-N-SH cells by MTT reduction assay; assay type: functional, cell-based
MDA-MB-435 = assay: Antiproliferative activity against human MDA-MB-435 cells; assay type: functional, cell-based
HeLa [30] = assay: Growth inhibition of human HeLa cells at 20 micromol relative to control; assay type: functional; conditions: dose 20 µmol
HepG2 [31] = assay: Antiproliferative activity against human HepG2 cells by MTT reduction assay; assay type: functional, cell-based
MDA-MB-231 = assay: Growth inhibition of human MDA-MB-231 cells at 20 micromol relative to control; assay type: functional; conditions: dose 20 µmol
HCT-116 [32] = assay: Cytotoxicity against human HCT-116 cells; assay type: functional, cell-based
MCF7 [33] = assay: Antiproliferative activity against human MCF7; assay type: functional, cell-based
WI-38 = assay: Antiproliferative activity against human WI-38; assay type: functional, cell-based
Proteus mirabilis = assay: Antibacterial activity against Proteus mirabilis; assay type: functional
Bacillus subtilis [34] = assay: Antibacterial activity against Bacillus subtilis MTCC 441; assay type: functional
Micrococcus luteus = assay: Antibacterial activity against Micrococcus luteus PTCC 1110; assay type: functional
Bacillus pumilus = assay: Antibacterial activity against Bacillus pumilus PTCC 1114; assay type: functional
Escherichia coli [35] = assay: Antibacterial activity against Escherichia coli MTCC 1689; assay type: functional
Enterococcus faecalis = assay: Antibacterial activity against Enterococcus faecalis ATCC 29737; assay type: functional
Streptococcus mutans = assay: Antibacterial activity against Streptococcus mutans PTCC 1601; assay type: functional
Staphylococcus aureus [36] = assay: Antibacterial activity against Staphylococcus aureus ATCC 25923; assay type: functional
Staphylococcus aureus [37] = assay: Antibacterial activity against Staphylococcus aureus MTCC 96; assay type: functional
Klebsiella pneumoniae [38] = assay: Antibacterial activity against Klebsiella pneumoniae ATCC 29655; assay type: functional
[39] = system: Staphylococcus epidermidis; assay: Antibacterial activity against Staphylococcus epidermidis ATCC 12228; assay type: functional
Bacillus subtilis [40] = assay: Antibacterial activity against Bacillus subtilis ATCC 465; assay type: functional
HepG2 [41] = assay: cells; assay type: functional, cell-based; conditions: Homo sapiens
MCF7 [42] = assay: cells; assay type: functional, cell-based; conditions: Homo sapiens
HeLa [43] = assay: Cytotoxicity against human HeLa cells; assay type: functional, cell-based
MCF7 [44] = assay: Cytotoxicity against human MCF7 cells; assay type: functional, cell-based
A549 = assay: Cytotoxicity against human A549 cells; assay type: functional, cell-based
Staphylococcus aureus [45] = assay: Antibacterial activity against methicillin resistant Staphylococcus aureus ATCC 43300; assay type: functional
Staphylococcus aureus [46] = assay: Antibacterial activity against Staphylococcus aureus ATCC 29213; assay type: functional
Escherichia coli [47] = assay: Antibacterial activity against Escherichia coli ATCC 25922; assay type: functional
Klebsiella pneumoniae [48] = assay: Antibacterial activity against Klebsiella pneumoniae ATCC 700603; assay type: functional
HepG2 [49] = assay: Anticancer activity against human HepG2 cells by MTT assay; assay type: functional, cell-based
MCF7 [50] = assay: Anticancer activity against human MCF7 cells by MTT assay; assay type: functional, cell-based
HCT-116 [51] = assay: Anticancer activity against human HCT-116 cells by MTT assay; assay type: functional, cell-based

O=C1Nc2ccccc2[C@]12N1CSC[C@H]1[C@H](c1ccc(Br)cc1)[C@]21CCC/C(=C\c2ccc(Br)cc2)C1=O
IC50 (MCF7 [1]): 15.3 µM
IC50 (K562): 14.7 µM

O=C1/C(=C/c2cccc([N+](=O)[O-])c2)CCC[C@]12[C@H]1CCCN1[C@]1(C(=O)Nc3ccccc31)[C@H]2c1cccc([N+](=O)[O-])c1
IC50 (NIH3T3): 19.1 µM
IC50 (HeLa [2]): 4.8 µM
MIC (Leishmania major): 6.8 µM (≈ 3.84 µg/mL)

O=c1[nH]cc(F)c(=O)[nH]1 [FLUOROURACIL]
IC50 (SMMC-7721): 9.7 µM
IC50 (MCF7 [1]): 78.3 µM
IC50 (MGC-803): 7.6 µM
IC50 (ECa-109 cell line): 10.6 µM
ED25 (Ehrlich): 40 microg/cm3

CCn1cc(C(=O)O)c(=O)c2cc(F)c(N3CCNCC3)cc21 [NORFLOXACIN]
MIC (Pseudomonas aeruginosa [3]): 2 mg/L (≈ 6.26 µM)
MIC (Pseudomonas aeruginosa [4]): 2 mg/L (≈ 6.26 µM)
MIC (Pseudomonas aeruginosa [5]): > 64 mg/L
MIC (Pseudomonas aeruginosa [6]): > 64 mg/L

GENTAMICIN
MIC (Escherichia coli [7]): 1.95 mg/L
MIC (Streptococcus pneumoniae [8]): inactive
MIC (Bacillus subtilis [9]): 0.125 mg/L
MIC (Pseudomonas aeruginosa [10]): 15.6 mg/L
MIC (Bacillus subtilis [11]): inactive
MIC (Pseudomonas aeruginosa [12]): 8 mg/L
MIC (Escherichia coli [13]): 4 mg/L
MIC (Streptococcus pneumoniae [14]): inactive
MIC (Bacillus subtilis [15]): inactive

CN1C[C@@H](c2ccccc2Cl)[C@H](C(=O)c2c(O)c3ccccc3[nH]c2=O)[C@@]12C(=O)Nc1ccccc12
IC50 (HeLa [16]): 10.7 µM

CC1(C)S[C@@H]2[C@H](NC(=O)[C@H](N)c3ccccc3)C(=O)N2[C@H]1C(=O)O [AMPICILLIN]
MIC (Escherichia coli [7]): inactive
MIC (Pseudomonas aeruginosa [10]): inactive
diameter of the inhibition zone (DIZ) (Escherichia coli [17]): 6 mm
MIC90 (Staphylococcus aureus [18]): 1 mg/L (≈ 2.86 µM)
MIC90 (Pseudomonas aeruginosa [19]): 4.36 mg/L (≈ 12.5 µM)
MIC (Staphylococcus aureus [20]): 250 mg/L (≈ 715 µM)
MIC (Bacillus subtilis [11]): 0.007 mg/L (≈ 0.02 µM)
MIC90 (Escherichia coli [21]): 1.46 mg/L (≈ 4.18 µM)
MIC90 (Bacillus subtilis [22]): 10.3 mg/L (≈ 29.5 µM)
MIC (Streptococcus pneumoniae [14]): 0.015 mg/L (≈ 0.0429 µM)
MIC (Pseudomonas aeruginosa [23]): 100 mg/L (≈ 286 µM)
MIC (Escherichia coli [24]): 100 mg/L (≈ 286 µM)
MIC (Bacillus subtilis [25]): 250 mg/L (≈ 715 µM)
MIC (Escherichia coli [26]): inactive
MIC (Pseudomonas aeruginosa [27]): inactive
diameter of the inhibition zone (DIZ) (Staphylococcus aureus [28]): 6 mm

COc1cccc2c1C(=O)c1c(O)c3c(c(O)c1C2=O)C[C@@](O)(C(=O)CO)C[C@@H]3O[C@H]1C[C@H](N)[C@H](O)[C@H](C)O1 [DOXORUBICIN]
growth inhibition (GI) (HepG2 [29]): 79.1%
IC50 (DU-145): 1.8 µM
IC50 (SK-N-SH): 6.3 µM
IC50 (MDA-MB-435): 0.09 µM
growth inhibition (GI) (HeLa [30]): 76.1%
IC50 (HepG2 [31]): 5.4 µM
growth inhibition (GI) (MDA-MB-231): 76%
IC50 (HCT-116 [32]): 2.4 µM

CN1C(=O)C2(SC[C@@H](C(=O)O)[C@@H]2C(=O)c2ccc(Cl)c(Cl)c2)c2ccccc21 (stereo partly specified)
IC50 (MCF7 [33]): 36.3 µM
IC50 (WI-38): 55.1 µM

CN(C)[C@@H]1C(O)=C(C(N)=O)C(=O)[C@@]2(O)C(O)=C3C(=O)c4c(O)cccc4[C@@](C)(O)[C@H]3C[C@@H]12 [TETRACYCLINE]
MIC (Proteus mirabilis): 15 mg/L (≈ 33.8 µM)
MIC (Bacillus subtilis [34]): 10 mg/L (≈ 22.5 µM)
MIC (Micrococcus luteus): 4 mg/L (≈ 9 µM)
MIC (Bacillus pumilus): 8 mg/L (≈ 18 µM)
MIC (Escherichia coli [35]): 10 mg/L (≈ 22.5 µM)
MIC (Enterococcus faecalis): 8 mg/L (≈ 18 µM)
MIC (Streptococcus mutans): 2 mg/L (≈ 4.5 µM)
MIC (Staphylococcus aureus [36]): 4 mg/L (≈ 9 µM)
MIC (Staphylococcus aureus [37]): 5 mg/L (≈ 11.3 µM)
MIC (Klebsiella pneumoniae [38]): 16 mg/L (≈ 36 µM)
MIC [39]: < 2 mg/L
MIC (Bacillus subtilis [40]): 4 mg/L (≈ 9 µM)

CCOC(=O)C1=C(C)NC(=S)NC12C(=O)Nc1c(Cl)cc(Cl)cc12 (stereo unspecified)
IC50 (HepG2 [41]): 28.4 µM
IC50 (MCF7 [42]): 21.3 µM

CCOC(=O)C1=C(C(=O)OCC)C2(NC1CC(C)C)C(=O)Nc1ccccc12 (stereo unspecified)
IC50 (HeLa [43]): > 50 µM
IC50 (MCF7 [44]): 5 µM
IC50 (A549): 4.5 µM

COc1ccc(C2C3CCCN3C3(C(=O)Nc4ccccc43)C2C(=O)c2ccco2)cc1 (stereo unspecified)
MIC (Pseudomonas aeruginosa [3]): 15 mg/L (≈ 35 µM)
MIC (Staphylococcus aureus [45]): 128 mg/L (≈ 299 µM)
MIC (Pseudomonas aeruginosa [4]): 16 mg/L (≈ 37.3 µM)
MIC (Staphylococcus aureus [46]): 64 mg/L (≈ 149 µM)
MIC (Pseudomonas aeruginosa [5]): 32 mg/L (≈ 74.7 µM)
MIC (Escherichia coli [47]): 128 mg/L (≈ 299 µM)
MIC (Pseudomonas aeruginosa [6]): 16 mg/L (≈ 37.3 µM)
MIC (Klebsiella pneumoniae [48]): 128 mg/L (≈ 299 µM)

CN1C[C@H](c2ccc(Cl)cc2Cl)[C@@H](C(=O)c2cc3ccccc3[nH]2)C12C(=O)Nc1ccccc12 (stereo partly specified)
IC50 (HepG2 [49]): > 50 µM
IC50 (MCF7 [50]): 15 µM
IC50 (HCT-116 [51]): < 1 µM

CCOC(=O)C1=C(C(=O)OCC)C2(C(=O)Nc3ccccc32)N2CCCC12 (stereo unspecified)
IC50 (HeLa [43]): 8.3 µM
IC50 (MCF7 [44]): 3.3 µM
IC50 (A549): 2 µM
